Experimental data taken from ChEMBL document CHEMBL1146394, “New antihepatotoxic cerebroside from Lycium chinense fruits” (1997).

Each compound was assayed on Hepatocyte (assay: Antihepatotoxic activity against CCl4-induced cytotoxicity in rat hepatocytes assessed as blockade of glutamic pyruvic transaminase release at 25 uM by Reitman-Frankel method relative to control).
Type: functional

Compound	Activity [%]
CCCCCCCCC/C=C\CC/C=C/[C@@H](O)[C@H](CO[C@@H]1O[C@H](CO)[C@@H](O)[C@H](O)[C@H]1O)NC(=O)C(O)CCCCCCCCCCCCCC (stereo partly specified)	86.4
CCCCCCCCC/C=C\CC/C=C/[C@@H](O)[C@H](CO[C@@H]1O[C@H](CO)[C@@H](O)[C@H](O)[C@H]1O)NC(=O)CCCCCCCCCCCCCCC	95.6
COc1cc(C2Oc3cc([C@H]4Oc5cc(O)cc(O)c5C(=O)[C@@H]4O)ccc3OC2CO)ccc1O (stereo partly specified) [SILIBININ]	76

These compounds were tested on Hepatocyte (assay: Antihepatotoxic activity against CCl4-induced cytotoxicity in rat hepatocytes assessed as blockade of sorbitol dehydrogenase release at 25 uM by modified Gerlach method relative to control).
Type: functional

Compound	Activity [%]
CCCCCCCCC/C=C\CC/C=C/[C@@H](O)[C@H](CO[C@@H]1O[C@H](CO)[C@@H](O)[C@H](O)[C@H]1O)NC(=O)C(O)CCCCCCCCCCCCCC (stereo partly specified)	69.5
CCCCCCCCC/C=C\CC/C=C/[C@@H](O)[C@H](CO[C@@H]1O[C@H](CO)[C@@H](O)[C@H](O)[C@H]1O)NC(=O)CCCCCCCCCCCCCCC	80.2
COc1cc(C2Oc3cc([C@H]4Oc5cc(O)cc(O)c5C(=O)[C@@H]4O)ccc3OC2CO)ccc1O (stereo partly specified) [SILIBININ]	58.9
